# Results taken from ChEMBL document CHEMBL5360558, “Molecular design, synthesis and anticancer activity of new thiopyrano[2,3-d]thiazoles based on 5-hydroxy-1,4-naphthoquinone (juglone)” (Eur J Med Chem, 2023).
# Assays:
# M14 = experiment: Anticancer activity against human M14 cells assessed as cell growth at 10 uM incubated for 48 hrs by sulforhodamine B assay; format: functional; settings: read-out: Activity
# MDA-MB-435 = experiment: Anticancer activity against human MDA-MB-435 cells assessed as cell growth at 10 uM incubated for 48 hrs by sulforhodamine B assay; format: functional; settings: read-out: Activity
# SK-MEL-5 = experiment: Anticancer activity against human SK-MEL-5 cells assessed as cell growth at 10 uM incubated for 48 hrs by sulforhodamine B assay; format: functional; settings: read-out: Activity
# A498 = experiment: Anticancer activity against human A498 cells assessed as cell growth at 10 uM incubated for 48 hrs by sulforhodamine B assay; format: functional; settings: read-out: Activity
# COLO 205 = experiment: Anticancer activity against human COLO 205 cells assessed as cell growth at 10 uM incubated for 48 hrs by sulforhodamine B assay; format: functional; settings: read-out: Activity
# SNB-75 = experiment: Anticancer activity against human SNB-75 cells assessed as cell growth at 10 uM incubated for 48 hrs by sulforhodamine B assay; format: functional; settings: read-out: Activity
# SK-MEL-2 = experiment: Anticancer activity against human SK-MEL-2 cells assessed as cell growth at 10 uM incubated for 48 hrs by sulforhodamine B assay; format: functional; settings: read-out: Activity
# HCT-116 = experiment: Cytotoxicity against human HCT-116 cells assessed as cell growth inhibition incubated for 72 hrs by MTT assay; format: functional, cell-based; settings: HCT-116, 72 h
# [1] = Cytotoxicity against human HCT116-p53-null cells assessed as cell growth inhibition incubated for 72 hrs by MTT assay; format: functional, cell-based
# KB 3-1 = experiment: Cytotoxicity against human KB 3-1 cells assessed as cell growth inhibition incubated for 72 hrs by MTT assay; format: functional, cell-based; settings: KB 3-1, 72 h
# K562 = experiment: Cytotoxicity against human K562 cells assessed as cell growth inhibition incubated for 72 hrs by MTT assay; format: functional, cell-based; settings: K562, 72 h
# [2] = Cytotoxicity against mouse J774.2 cells assessed as cell growth inhibition incubated for 72 hrs by MTT assay; format: toxicity, cell-based
# [3] = Cytotoxicity against mouse NIH3T3 cells assessed as cell growth inhibition incubated for 72 hrs by MTT assay; format: toxicity, cell-based
# [4] = Cytotoxicity against human HaCaT cells assessed as cell growth inhibition incubated for 72 hrs by MTT assay; format: toxicity, cell-based; settings: HaCaT cells
# [5] = Antileukemic activity against human CLL cell assessed as cell growth inhibition incubated for 72 hrs by MTT assay; format: functional, cell-based
# [6] = Antileukemic activity against human CLL cell assessed as cell growth inhibition incubated for 72 hrs in presence of BST by MTT assay; format: functional, cell-based
# [7] = Antileukemic activity against human CLL cell assessed as cell growth inhibition incubated for 72 hrs during remission period by MTT assay; format: functional, cell-based
# [8] = Cytotoxicity against human Lymphocyte cells assessed as cell growth inhibition incubated for 72 hrs by MTT assay; format: toxicity, cell-based; settings: lymphocytes
# [9] = Acute toxicity in C57BL/6 mouse assessed as neutrophil count at 20 mg/kg,ip administration and observed after 22 days; format: organism-based; settings: in vivo, 528 h, time 22 day
# [10] = Acute toxicity in C57BL/6 mouse assessed as lymphocyte count at 20 mg/kg,ip administration and observed after 22 days; format: organism-based; settings: in vivo, 528 h, time 22 day
# [11] = Acute toxicity in C57BL/6 mouse assessed as decrease in body mass at 6.6 mg/kg,ip administration; format: organism-based; settings: in vivo
# [12] = Acute toxicity in C57BL/6 mouse assessed as decrease in body mass at 20 mg/kg,ip administration observed after 6 days; format: organism-based; settings: in vivo, 144 h, time 6 day
# [13] = Acute toxicity in C57BL/6 mouse assessed as animal death at 20 mg/kg,ip administration observed after 8 days; format: organism-based; settings: in vivo, 192 h, time 8 day
# [14] = Acute toxicity in C57BL/6 mouse assessed as animal death at 20 mg/kg,ip administration observed after 13 days; format: organism-based; settings: in vivo, 312 h, time 13 day
# [15] = Acute toxicity in C57BL/6 mouse assessed as anemia at 20 mg/kg,ip administration observed after 22 days; format: organism-based; settings: in vivo, 528 h, time 22 day
# [16] = Acute toxicity in C57BL/6 mouse assessed as leukopenia at 20 mg/kg,ip administration observed after 22 days; format: organism-based; settings: in vivo, 528 h, time 22 day
structure (smiles),measurement,setting,value
COc1cccc2c1C(=O)c1c(O)c3c(c(O)c1C2=O)C[C@@](O)(C(=O)CO)C[C@@H]3O[C@H]1C[C@H](N)[C@H](O)[C@H](C)O1 [DOXORUBICIN],growth at 10 µM,M14,-71.6%
same,growth at 10 µM,MDA-MB-435,-82.6%
same,growth at 10 µM,SK-MEL-5,-86.4%
same,growth at 10 µM,A498,-75.1%
same,growth at 10 µM,COLO 205,-81.6%
same,growth at 10 µM,SNB-75,-76.1%
same,growth at 10 µM,SK-MEL-2,-82.6%
same,IC50,HCT-116,580 nM
same,IC50,[1],630 nM
same,IC50,KB 3-1,560 nM
same,IC50,K562,590 nM
same,IC50 at 72 h,[2],560 nM
same,IC50 at 72 h,[3],720 nM
same,IC50 at 72 h,[4],4560 nM
same,IC50,[5],> 10000 nM
same,IC50,[6],8600 nM
same,IC50,[7],7330 nM
same,IC50 at 72 h,[8],10000 nM
same,Activity,[9],45.05%
same,Activity,[10],50.35%
same,Activity,[11],Toxic
same,Activity,[12],Toxic
same,Activity,[13],Toxic
same,Activity,[14],Toxic
same,Activity,[15],Toxic
same,Activity,[16],Toxic
